# In patent US11642348B2, “Substituted benzene compounds” (Epizyme, Inc., priority 2012, dated 2023):
# Like-named read-outs stand apart in the source and are kept apart here.
# Assays:
# [1] = molecular target: wild-type EZH2 (PRC2 complex) (Homo sapiens (Human), UniProt Q15910); test: PRC2 enzyme assay on peptide substrates (wild-type EZH2)
# [2] = system: H3K27me3 in WSU-DLCL2 cells; test: WSU-DLCL2 methylation assay (H3K27me3 ELISA); assay type: cell-based; conditions: Homo sapiens, 96 hours
# WSU-DLCL2 cells = test: Cell proliferation analysis (WSU-DLCL2, Cell Titer Glo); assay type: cell-based; conditions: Homo sapiens, 6 days
# [3] = WSUDLCL2, Table 3A, read-out: H3K27Me3 ELISA IC50
# [4] = WSUDLCL2, Table 3B, read-out: WSU proliferation IC50
# [5] = WSUDLCL2, Table 3B, read-out: ELISA H3K27me3 IC50
# wild-type EZH2 (PRC2 complex), sequence (Q15910 other isoform, or with tags, fused parts or gaps): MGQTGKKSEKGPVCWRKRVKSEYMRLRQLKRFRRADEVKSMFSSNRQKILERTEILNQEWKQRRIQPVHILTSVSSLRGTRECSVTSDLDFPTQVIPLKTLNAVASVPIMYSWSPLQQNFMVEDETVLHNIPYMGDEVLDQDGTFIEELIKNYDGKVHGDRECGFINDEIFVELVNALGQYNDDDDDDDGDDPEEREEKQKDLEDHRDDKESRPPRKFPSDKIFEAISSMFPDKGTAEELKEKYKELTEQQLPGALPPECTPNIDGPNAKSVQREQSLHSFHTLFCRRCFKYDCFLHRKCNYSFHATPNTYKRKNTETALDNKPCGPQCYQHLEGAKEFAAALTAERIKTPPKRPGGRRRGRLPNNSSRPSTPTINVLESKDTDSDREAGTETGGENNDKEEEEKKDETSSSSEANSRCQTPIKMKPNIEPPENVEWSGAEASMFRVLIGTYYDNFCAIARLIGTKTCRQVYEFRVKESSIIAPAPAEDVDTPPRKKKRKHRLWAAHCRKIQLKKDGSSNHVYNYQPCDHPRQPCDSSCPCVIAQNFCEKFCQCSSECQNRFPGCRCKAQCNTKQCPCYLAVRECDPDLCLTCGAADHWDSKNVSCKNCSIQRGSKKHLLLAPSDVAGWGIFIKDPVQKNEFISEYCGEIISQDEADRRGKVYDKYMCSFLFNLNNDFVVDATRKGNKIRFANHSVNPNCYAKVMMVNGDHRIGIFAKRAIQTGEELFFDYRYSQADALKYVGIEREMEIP
# wild-type EZH2 (PRC2 complex), sequence (O75530 whole entry partner): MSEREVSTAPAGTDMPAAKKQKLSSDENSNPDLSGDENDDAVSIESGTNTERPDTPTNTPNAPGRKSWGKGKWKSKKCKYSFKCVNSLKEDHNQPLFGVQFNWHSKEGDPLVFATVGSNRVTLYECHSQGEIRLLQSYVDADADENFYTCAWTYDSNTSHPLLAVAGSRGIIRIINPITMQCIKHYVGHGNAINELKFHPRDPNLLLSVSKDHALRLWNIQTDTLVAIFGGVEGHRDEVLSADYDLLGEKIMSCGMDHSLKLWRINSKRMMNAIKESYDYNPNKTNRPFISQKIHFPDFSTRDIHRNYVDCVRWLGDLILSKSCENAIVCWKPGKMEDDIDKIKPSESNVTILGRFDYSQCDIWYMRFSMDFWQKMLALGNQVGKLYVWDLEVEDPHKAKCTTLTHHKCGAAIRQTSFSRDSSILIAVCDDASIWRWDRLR
# wild-type EZH2 (PRC2 complex), sequence (Q15022 whole entry partner): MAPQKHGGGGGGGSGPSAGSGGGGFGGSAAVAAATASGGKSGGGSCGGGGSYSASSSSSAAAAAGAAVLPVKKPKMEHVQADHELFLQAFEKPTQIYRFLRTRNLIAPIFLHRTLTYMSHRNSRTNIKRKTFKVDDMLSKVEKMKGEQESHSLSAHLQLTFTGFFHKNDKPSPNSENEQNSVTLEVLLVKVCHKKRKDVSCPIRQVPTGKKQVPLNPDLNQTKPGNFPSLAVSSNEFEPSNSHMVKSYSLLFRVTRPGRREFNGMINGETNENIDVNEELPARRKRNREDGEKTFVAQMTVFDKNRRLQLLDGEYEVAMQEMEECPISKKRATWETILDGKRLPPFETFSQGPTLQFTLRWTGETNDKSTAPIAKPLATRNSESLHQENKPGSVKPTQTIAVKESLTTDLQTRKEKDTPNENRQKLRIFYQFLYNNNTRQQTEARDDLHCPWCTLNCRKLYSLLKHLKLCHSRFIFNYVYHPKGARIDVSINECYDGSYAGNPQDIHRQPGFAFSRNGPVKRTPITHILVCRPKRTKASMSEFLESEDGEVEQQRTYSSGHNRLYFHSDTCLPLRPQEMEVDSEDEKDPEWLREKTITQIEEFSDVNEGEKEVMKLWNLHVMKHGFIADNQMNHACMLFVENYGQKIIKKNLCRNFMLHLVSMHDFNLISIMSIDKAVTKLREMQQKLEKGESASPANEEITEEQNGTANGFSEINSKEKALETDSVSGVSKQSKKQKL
# wild-type EZH2 (PRC2 complex), sequence (Q09028 whole entry partner): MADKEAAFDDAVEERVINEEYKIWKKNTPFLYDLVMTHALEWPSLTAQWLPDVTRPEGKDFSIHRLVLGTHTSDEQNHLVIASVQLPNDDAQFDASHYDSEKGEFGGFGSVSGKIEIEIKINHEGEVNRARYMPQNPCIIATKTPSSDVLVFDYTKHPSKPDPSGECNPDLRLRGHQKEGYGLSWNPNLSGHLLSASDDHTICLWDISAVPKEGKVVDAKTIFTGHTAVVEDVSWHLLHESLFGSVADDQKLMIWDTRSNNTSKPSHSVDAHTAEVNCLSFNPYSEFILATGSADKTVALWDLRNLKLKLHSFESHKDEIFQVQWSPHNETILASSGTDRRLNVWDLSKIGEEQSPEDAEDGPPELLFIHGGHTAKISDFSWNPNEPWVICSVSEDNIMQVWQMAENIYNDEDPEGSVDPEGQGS
Structure (SMILES),"IC50 [2, 5] [nM]",IC50 (WSU-DLCL2 cells; [4]) [nM],other results
"CCN(c1cc(-c2ccc(OCCOC)nc2)cc(C(=O)NCc2c(C)cc(C)[nH]c2=O)c1C)[C@H]1CC[C@H](N(C)C)CC1 [Compound 5, N-((4,6-dimethyl-2-oxo-1,2-dihydropyridin-3-yl)methyl)-3-(((trans)-4-(dimethylamino)cyclohexyl)(ethyl)amino)-5-(6-(2-methoxyethoxy)pyridin-3-yl)-2-methylbenzamide]",,,IC50 [1]: 13.1 nM
"CCN(c1cc(-c2ccc(OCCOCCOC)cc2)cc(C(=O)NCc2c(C)cc(C)[nH]c2=O)c1C)[C@H]1CC[C@H](N(C)C)CC1 [Compound 6, N-((4,6-dimethyl-2-oxo-1,2-dihydropyridin-3-yl)methyl)-5-(((trans)-4-(dimethylamino)cyclohexyl)(ethyl)amino)-4′-(2-(2-methoxyethoxy)ethoxy)-4-methyl-[1,1′-biphenyl]-3-carboxamide]",,,"IC50 [1]: 15.4 nM; IC50 [2, 3]: 57.5 nM"
"CCN(c1cc(-c2ccc(OCCOC)cc2)cc(C(=O)NCc2c(OC)cc(C)[nH]c2=O)c1C)[C@H]1CC[C@H](N(C)C)CC1 [Compound 6b, 5-(((trans)-4-(dimethylamino)cyclohexyl)(ethyl)amino)-N-((4-methoxy-6-methyl-2-oxo-1,2-dihydropyridin-3-yl)methyl)-4′-(2-methoxyethoxy)-4-methyl-[1,1′-biphenyl]-3-carboxamide]",,,"IC50 [1]: < 5 nM; IC50 [2, 3]: 33.9 nM"
"CCN(c1cc(OCCN2CCOCC2)cc(C(=O)NCc2c(C)cc(C)[nH]c2=O)c1C)[C@H]1CC[C@H](N(C)CCOC)CC1 [Compound 13, N-((4,6-dimethyl-2-oxo-1,2-dihydropyridin-3-yl)methyl)-3-(ethyl((trans)-4-((2-methoxyethyl)(methyl)amino)cyclohexyl)amino)-2-methyl-5-(2-morpholinoethoxy)benzamide]",,,"IC50 [2, 3]: > 50000 nM"
"CCN(c1cc(OCCCN2CCOCC2)cc(C(=O)NCc2c(C)cc(C)[nH]c2=O)c1C)[C@H]1CC[C@H](N(C)CCOC)CC1 [Compound 14, N-((4,6-dimethyl-2-oxo-1,2-dihydropyridin-3-yl)methyl)-3-(ethyl((trans)-4-((2-methoxyethyl)(methyl)amino)cyclohexyl)amino)-2-methyl-5-(3-morpholinopropoxy)benzamide]",,,"IC50 [2, 3]: 17100 nM"
CCN(c1cc(-c2cnc(C)nc2)cc(C(=O)NCc2c(C)cc(C)[nH]c2=O)c1C)[C@H]1CC[C@H](N(C)CCOC)CC1 [Compound 19],,,IC50 [1]: 9.81 nM
CCN(c1cc(-c2cnc(OC)nc2)cc(C(=O)NCc2c(C)cc(C)[nH]c2=O)c1C)[C@H]1CC[C@H](N(C)CCOC)CC1 [Compound 20],,,IC50 [1]: < 5 nM
CCN(c1cc(-c2ccc(CN3CCOCC3)cc2)cc(C(=O)NCc2c(C)cc(C)[nH]c2=O)c1C)[C@H]1CC[C@H](N(C)CCOC)CC1 [Compound 26],,,"IC50 (WSU-DLCL2 cells; WSUDLCL2, Table 3A, read-out: WSU Prolif. IC50): 138 nM; IC50 [2, 3]: 87 nM"
"CCN(c1cc(C#CC2CCN(C)CC2)cc(C(=O)NCc2c(C)cc(C)[nH]c2=O)c1C)C1CCOCC1 [Compound 105, N-((4,6-dimethyl-2-oxo-1,2-dihydropyridin-3-yl)methyl)-3-(ethyl(tetrahydro-2H-pyran-4-yl)amino)-2-methyl-5-((1-methylpiperidin-4-yl)ethynyl)benzamide]",,,"IC50 [2, 3]: 150 nM"
CCN(c1cc(C#CCN2CCOCC2)cc(C(=O)NCc2c(C)cc(C)[nH]c2=O)c1C)C1CCC(N(C)C)CC1 (stereo not drawn) [Compound 111],14,201,
CCN(c1cc(C#CCN2CCOCC2)cc(C(=O)NCc2c(C)cc(C)[nH]c2=O)c1C)[C@H]1CC[C@H](N(C)C)CC1 [Compound 111],,,IC50 [1]: < 5 nM
CCN(c1cc(C#CCN2CCCN(C)CC2)cc(C(=O)NCc2c(C)cc(C)[nH]c2=O)c1C)C1CCC(N(C)C)CC1 (stereo not drawn) [Compound 112],179,798,
CCN(c1cc(-c2ccc(OC3CCN(C)CC3)nc2)cc(C(=O)NCc2c(C)cc(C)[nH]c2=O)c1C)C1CCOCC1 [Compound 133],,503,
CCN(c1cc(-c2ccc(CN3CCC(O)CC3)nc2)cc(C(=O)NCc2c(C(C)C)cc(C)[nH]c2=O)c1C)C1CCOCC1 [Compound 140],,716,
CCN(c1cc(-c2ccc(CN3CCOCC3)nc2)cc(C(=O)NCc2c(C(F)(F)F)cc(C)[nH]c2=O)c1C)C1CCOCC1 [Compound 142],699,2000,
CCN(c1cc(-c2ccc(CN3CCC(O)CC3)c(F)c2)cc(C(=O)NCc2c(C)cc(C)[nH]c2=O)c1C)C1CCOCC1 [Compound 153],,476,
CCN(c1cc(C#CC2CCN(C3CN(C)C3)CC2)cc(C(=O)NCc2c(C)cc(C)[nH]c2=O)c1C)C1CCOCC1 [Compound 162],,,IC50 [1]: 12 nM

# Further lines, with some results ahead:
"IC50 [2, 5] [nM]",Structure (SMILES),IC50 (WSU-DLCL2 cells; [4]) [nM],other results
166,CCN(c1cc(-c2ccc(N3CCN(C)CC3)nc2)cc(C(=O)NCc2c(C)cc(C)[nH]c2=O)c1C)C1C[C@@H](C)N[C@H](C)C1 (stereo partly drawn) [Compound 124],158,
291,CCN(c1cc(-c2ccc(N3CCN(C)CC3)nc2)cc(C(=O)NCc2c(C)cc(C)[nH]c2=O)c1C)C1CCN(C)CC1 [Compound 125],155,
354,CCN(c1cc(-c2ccc(COC)nc2)cc(C(=O)NCc2c(C(C)C)cc(C)[nH]c2=O)c1C)C1CCOCC1 [Compound 129],254,
218,CCN(c1cc(-c2ccc(OC)nc2)cc(C(=O)NCc2c(C)cc(C)[nH]c2=O)c1C)C1CCOCC1 [Compound 130],218,
192,CCN(c1cc(-c2ccc(CN3CCCN(C)CC3)nc2)cc(C(=O)NCc2c(C)cc(C)[nH]c2=O)c1C)C1CCOCC1 [Compound 135],176,
259,CCN(c1cc(-c2ccc(CN3CCCN(C)CC3)nc2)cc(C(=O)NCc2c(C(C)C)cc(C)[nH]c2=O)c1C)C1CCOCC1 [Compound 136],566,
56,CCN(c1cc(-c2ccc(N3CCCN(C)CC3)nc2)cc(C(=O)NCc2c(C)cc(C)[nH]c2=O)c1C)C1CCOCC1 [Compound 137],505,
288,CCN(c1cc(-c2ccc(CN3CCCC3)nc2)cc(C(=O)NCc2c(C)cc(C)[nH]c2=O)c1C)C1CCOCC1 [Compound 138],178,
95.8,CCN(c1cc(-c2ccc(CN3CCCCC3)nc2)cc(C(=O)NCc2c(C)cc(C)[nH]c2=O)c1C)C1CCOCC1 [Compound 139],24.9,
349,CCN(c1cc(-c2ccc(CN3CCC[C@H](O)C3)nc2)cc(C(=O)NCc2c(C(C)C)cc(C)[nH]c2=O)c1C)C1CCOCC1 [Compound 141],123,
18,CCN(c1cc(-c2ccc(N3CCC(O)CC3)nc2)cc(C(=O)NCc2c(C)cc(C)[nH]c2=O)c1C)[C@H]1CC[C@H](N(C)C)CC1 [Compound 143],276,
92,CCN(c1cc(-c2ccc(N3CC(O)C3)nc2)cc(C(=O)NCc2c(C)cc(C)[nH]c2=O)c1C)[C@H]1CC[C@H](N(C)C)CC1 [Compound 144],1540,
84.2,CCN(c1cc(-c2ccc(CN3CCOCC3)nc2)cc(C(=O)NCc2c(C)cc(C)[nH]c2=O)c1C)[C@H]1CC[C@H](N(C)C)CC1 [Compound 145],185,
529,CCN(c1cc(-c2ccc(CN3CC(O)C3)c(F)c2)cc(C(=O)NCc2c(C)cc(C)[nH]c2=O)c1C)C1CCOCC1 [Compound 154],394,
